Results from PubChem BioAssay (NCI).
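48-hour exposure; five concentrations; linearly interpolated endpoints. At the GI50, growth is halved. Definition used: TGI = concentration required for complete inhibition of growth.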

Experiments:
Assay in all cases: growth of human tumour cells (NCI), 48 h
[1] = system: PC-3 prostate
[2] = system: K-562 leukemia
[3] = system: UACC-257 melanoma
[4] = system: NCI-H226 lung
[5] = system: NCI-H460 lung
[6] = system: OVCAR-5 ovarian
[7] = system: A549 NSCLC
[8] = system: CCRF-CEM leukemia
[9] = system: HT29 colon

Compound	GI50 [1] [µM]	TGI [1] [µM]	GI50 [2] [µM]	TGI [2] [µM]	GI50 [3] [µM]	TGI [3] [µM]	GI50 [4] [µM]	TGI [4] [µM]	GI50 [5] [µM]	TGI [5] [µM]	GI50 [6] [µM]	TGI [6] [µM]	GI50 [7] [µM]	TGI [7] [µM]	GI50 [8] [µM]	TGI [8] [µM]	TGI [9] [µM]	GI50 [9] [µM]
O=C(Cc1csc2nc(-c3ccc(Cl)cc3)cn12)N/N=C/c1ccccc1O	3.46	> 100	3.42	> 100	4.74	> 100	4.65	> 100	1.39	> 100	38.8	> 100	5.18	> 100	0.736	> 100		
Cc1n[n+]([O-])c(C)cc1[N+](=O)[O-]		65.2				29		60		28.4		36.8		48.1		9.32	27	
CC(C)CC1c2[nH]c3ccccc3c2C[C@H]2C(=O)NC(CCCCNC(=O)OC(C)(C)C)C(=O)N12 (stereo not given in full)		65.5		> 100		> 100		> 100				> 100		> 100			64.6	
COc1ccc(-n2c3c(c4cc(O)ccc42)Cc2ccccc2C3=O)cc1		15.3		> 100		> 100		> 100		> 100				> 100		27.3	> 100	
Cc1cc2ccc(OC(=O)c3ccc(N=C(N)N)cc3)cc2oc1=O		78.5		74.9		> 100		56.2		> 100		> 100		> 100		> 100	70.4	
Clc1ccc(Nc2nc(Nc3ccccc3)nc(Nc3ccc(-c4cc(-c5ccc(Cl)cc5)on4)cc3)n2)cc1	8.4	> 100	21.4	> 100	29.8	> 100	38.8	> 100	17.9	> 100	20.9	89.1	19.2	> 100	11.8	> 100	25.5	10.8
COc1cc(C2SCC(=O)N2c2ccc(NC(C)=O)cc2)cc(OC)c1OC (stereo not given)		> 100		> 100		> 100		> 100		> 100		> 100		> 100		> 100	> 100	
O=C(O)C(O)C(O)C(O)C(O)C(=O)O (stereo not given)		> 100		> 100		> 100		> 100		> 100		> 100		> 100		> 100	> 100	
N=c1ccc2nc(N)nn(O)c-2c1		> 100		> 100		> 100		> 100		> 100		> 100		> 100		> 100	> 100	
CC1(C(=O)O)C[C@](C)(C(=O)OCc2ccccc2)C[C@](C)(C(=O)OCc2ccccc2)C1 (stereo not given in full)		> 100		> 100		> 100		> 100		57.5		> 100		> 100		> 100	> 100	
O=C(CC(c1ccccc1)C1C(=O)NC(=S)NC1=O)c1ccc([N+](=O)[O-])cc1 (stereo not given)		> 100		> 100		> 100		> 100		> 100		> 100		> 100		> 100	> 100	
COc1ccc(-c2nn(-c3ccc(NC(=O)c4cc(Cl)cc(Cl)c4)cc3)cc2-c2ccncc2)cc1Cl	5.38	> 100	1.86	> 100	> 100	> 100	> 100	> 100	6.08	> 100			> 100	> 100			> 100	2.26
Cc1cc(S(=O)(=O)NC2=NCCN2Cc2ccccc2)c(S)cc1Cl		> 100		> 100		> 100		> 100		> 100		> 100		> 100		> 100	> 100	
CCOC(=O)c1c(-c2cccc(Cl)c2)c(C(=O)OC)c(C)c2sc(C=O)nc12		37.5		89.8		> 100		44.2		50.1		35.7		> 100		37	49.5	
C[N+]1(CCC(=O)c2ccccc2)CCC2CCC(C2)C1 (stereo not given)		> 100		> 100		> 100		> 100		> 100		> 100		> 100		> 100	> 100	
O=C(O)C1CCCCN1C(=O)Cc1c[nH]c2ccccc12 (stereo not given)		> 100		> 100		> 100		> 100		> 100		> 100		> 100		> 100	> 100	
CN(C)C(=O)OC1=CC2CCC(C1)N2C (stereo not given)		> 100		> 100		> 100		> 100		> 100		> 100		> 100		> 100	> 100	
